Measurements published in ChEMBL document CHEMBL5625202, “Synthesis, characterization and anti-breast cancer activities of stachydrine derivatives” (Eur J Med Chem, 2023).
The source made the active and inactive calls. No cut-off for these calls is given here.

Tests used:
4T1 [1] = assay: Anticancer activity against mouse 4T1 cells assessed as inhibition of cell growth incubated for 24 hrs by CCK-8 assay; assay type: functional, cell-based; conditions: 4T1, 24 h
[2] = Toxicity in BALB/c mouse implanted with mouse 4T1 cells assessed as effect on BUN level at 0.2 mmol/Kg, po administered once every day for 14 days by routine blood analysis; assay type: organism-based; conditions: in vivo, 336 h, time 14 day
4T1 [3] = assay: Induction of apoptosis in mouse 4T1 cells assessed as apoptotic rate at 5000 micromol/L incubated for 24 hrs by Annexin-V/PI staining based flow cytometry relative to control; assay type: functional; conditions: dose 5000 µmol/L, at 5000 µM
[4] = Tmax in Sprague-Dawley rat plasma at 10 mg/kg, iv measured upto 6 hrs by LC-MS/MS analysis; assay type: ADME, organism-based
[5] = Toxicity in BALB/c mouse implanted with mouse 4T1 cells assessed as splenic edema at 0.2 mmol/Kg, po administered once every day for 14 days; assay type: organism-based; conditions: in vivo, 336 h, time 14 day
4T1 [6] = assay: Antitumor activity against mouse 4T1 cells implanted in BALB/c mouse assessed as tumor growth inhibition at 0.2 mmol/Kg, po administered once every day for 14 days relative to control; assay type: functional; conditions: 4T1, 336 h, time 14 day, read-out: TGI
[7] = Toxicity in BALB/c mouse implanted with mouse 4T1 cells assessed as increase in AST level at 0.2 mmol/Kg, po administered once every day for 14 days by routine blood analysis; assay type: organism-based; conditions: in vivo, 336 h, time 14 day
4T1 [8] = assay: Induction of mitochondrial membrane potential loss in mouse 4T1 cells assessed as red fluorescence at 5000 uM incubated for 24 hrs by JC-1 staining based flow cytometric analysis (Rvb= 87.9%); assay type: cell-based
4T1 [9] = assay: Induction of apoptosis in mouse 4T1 cells assessed as apoptotic rate at 10000 micromol/L incubated for 24 hrs by Annexin-V/PI staining based flow cytometry relative to control; assay type: functional; conditions: dose 10000 µmol/L, at 10000 µM
4T1 [10] = assay: Induction of apoptosis in mouse 4T1 cells assessed as decrease in Bcl-2 expression at 5 mM incubated for 24 hrs by Western blot analysis; assay type: functional, cell-based
4T1 [11] = assay: Induction of apoptosis in mouse 4T1 cells assessed as apoptotic rate at 2500 micromol/L incubated for 24 hrs by Annexin-V/PI staining based flow cytometry relative to control; assay type: functional; conditions: dose 2500 µmol/L, at 2500 µM
[12] = Toxicity in BALB/c mouse implanted with mouse 4T1 cells assessed as increase in monocytes at 0.2 mmol/Kg, po administered once every day for 14 days by routine blood analysis; assay type: organism-based; conditions: in vivo, 336 h, time 14 day
[13] = Toxicity in BALB/c mouse implanted with mouse 4T1 cells assessed as effect on CREA level at 0.2 mmol/Kg, po administered once every day for 14 days by routine blood analysis; assay type: organism-based; conditions: in vivo, 336 h, time 14 day
4T1 [14] = assay: Induction of apoptosis in mouse 4T1 cells assessed as increase in Bax expression at 5 mM incubated for 24 hrs by Western blot analysis; assay type: functional, cell-based
[15] = AUC (0 to t) in Sprague-Dawley rat plasma at 10 mg/kg, iv measured upto 6 hrs by LC-MS/MS analysis; assay type: ADME, organism-based
[16] = Toxicity in BALB/c mouse implanted with mouse 4T1 cells assessed as increase in ALT level at 0.2 mmol/Kg, po administered once every day for 14 days by routine blood analysis; assay type: organism-based; conditions: in vivo, 336 h, time 14 day
[17] = Half life in Sprague-Dawley rat plasma at 10 mg/kg, iv measured upto 6 hrs by LC-MS/MS analysis; assay type: ADME, organism-based
[18] = Toxicity in BALB/c mouse implanted with mouse 4T1 cells assessed as change in lung histopathology at 0.2 mmol/Kg, po administered once every day for 14 days; assay type: organism-based; conditions: in vivo, 336 h, time 14 day
[19] = Toxicity in BALB/c mouse implanted with mouse 4T1 cells assessed as change in liver histopathology at 0.2 mmol/Kg, po administered once every day for 14 days; assay type: organism-based; conditions: in vivo, 336 h, time 14 day
[20] = Toxicity in BALB/c mouse implanted with mouse 4T1 cells assessed as blurred spleen morphology at 0.2 mmol/Kg, po administered once every day for 14 days; assay type: organism-based; conditions: in vivo, 336 h, time 14 day
[21] = Toxicity in BALB/c mouse implanted with mouse 4T1 cells assessed as increase in white blood cells at 0.2 mmol/Kg, po administered once every day for 14 days by routine blood analysis; assay type: organism-based; conditions: in vivo, 336 h, time 14 day
[22] = Toxicity in BALB/c mouse implanted with mouse 4T1 cells assessed as increase in lymphocytes at 0.2 mmol/Kg, po administered once every day for 14 days by routine blood analysis; assay type: organism-based; conditions: in vivo, 336 h, time 14 day
[23] = Cmax in Sprague-Dawley rat plasma at 10 mg/kg, iv measured upto 6 hrs by LC-MS/MS analysis; assay type: ADME, organism-based
4T1 [24] = assay: Induction of mitochondrial membrane potential loss in mouse 4T1 cells assessed as green fluorescence at 5000 uM incubated for 24 hrs by JC-1 staining based flow cytometric analysis (reference value: 11.7%); assay type: cell-based
4T1 [25] = assay: Antitumor activity against mouse 4T1 cells implanted in BALB/c mouse assessed as tumor cell shrinkage at 0.2 mmol/Kg, po administered once every day for 14 days by histological staining based analysis; assay type: functional, organism-based; conditions: time 14.0 day
[26] = Toxicity in BALB/c mouse implanted with mouse 4T1 cells assessed as increase in neutrophil granulocytes at 0.2 mmol/Kg, po administered once every day for 14 days by routine blood analysis; assay type: organism-based; conditions: in vivo, 336 h, time 14 day
[27] = Stability of the compound in Sprague-Dawley rat plasma at 10 mg/kg, po measured after 6 hrs by LC-MS/MS analysis; assay type: ADME, organism-based; conditions: in vivo
[28] = Toxicity in BALB/c mouse implanted with mouse 4T1 cells assessed as reduction in spleen index at 0.2 mmol/Kg, po administered once every day for 14 days relative to control; assay type: organism-based; conditions: in vivo, 336 h, time 14 day
[29] = Toxicity in BALB/c mouse implanted with mouse 4T1 cells assessed as increase in splenic red pulp at 0.2 mmol/Kg, po administered once every day for 14 days; assay type: organism-based; conditions: in vivo, 336 h, time 14 day
4T1 [30] = assay: Induction of apoptosis in mouse 4T1 cells assessed as increase in cleaved caspase-3 expression at 5 mM incubated for 24 hrs by Western blot analysis; assay type: functional, cell-based
[31] = Oral bioavailability in Sprague-Dawley rat at 10 mg/kg measured upto 6 hrs by LC-MS/MS analysis; assay type: ADME, organism-based; conditions: in vivo
4T1 [32] = assay: Antitumor activity against mouse 4T1 cells implanted in BALB/c mouse assessed as tumor cell necrosis at 0.2 mmol/Kg, po administered once every day for 14 days by histological staining based analysis; assay type: functional, organism-based; conditions: time 14.0 day
[33] = Toxicity in BALB/c mouse implanted with mouse 4T1 cells assessed as change in heart histopathology at 0.2 mmol/Kg, po administered once every day for 14 days; assay type: organism-based; conditions: in vivo, 336 h, time 14 day
4T1 [34] = assay: Induction of apoptosis in mouse 4T1 cells assessed as increase in pro-caspase-3 expression at 5 mM incubated for 24 hrs by Western blot analysis; assay type: functional, cell-based
4T1 [35] = assay: Inhibition of cell migration in mouse 4T1 cells assessed as reduction in wound healing incubated for 24 hrs by microscopic analysis; assay type: functional, cell-based
4T1 [36] = assay: Antitumor activity against mouse 4T1 cells implanted in BALB/c mouse assessed as change in tumor weight at 0.2 mmol/Kg, po administered once every day for 14 days; assay type: functional, organism-based; conditions: time 14.0 day
[37] = Toxicity in BALB/c mouse implanted with mouse 4T1 cells assessed as change in kidney histopathology at 0.2 mmol/Kg, po administered once every day for 14 days; assay type: organism-based; conditions: in vivo, 336 h, time 14 day
[38] = Toxicity in BALB/c mouse implanted with mouse 4T1 cells assessed as body weight loss at 0.2 mmol/Kg, po administered once daily for 14 days; assay type: organism-based; conditions: in vivo, 336 h, time 14 day

With C[N+]1(C)CCCC1C(=O)[O-] (stereo not drawn) the IC50 (4T1 [1]) was 39 mM, the Activity [2] was “Non-Toxic” and the Activity (4T1 [3]) was 28.09%. The Tmax [4] was 1.02 min, the Activity [5] was “Toxic” and the inhibition in vivo at 200 µmol/kg (4T1 [6]) was 3.89%. For the same compound, the Activity [7] was “Toxic”, the Activity (4T1 [8]) was 70.4% and the Activity (4T1 [9]) was 32.47%. For the same compound, the Activity (4T1 [10]) was “Active”, the Activity (4T1 [11]) was 20.38% and the Activity [12] was “Toxic”. For the same compound, the Activity [13] was “Non-Toxic”, the Activity (4T1 [14]) was “Active” and the AUC(0-t) at 6 h [15] was 18500 ng·h/mL. For the same compound, the Activity [16] was “Toxic”, the half-life [17] was 69.6 min and the Activity [18] was “Non-Toxic”. The Activity [19] was “Non-Toxic”, the Activity [20] was “Toxic” and the Activity [21] was “Toxic”. For the same compound, the Activity [22] was “Toxic”, the Cmax [23] was 94.6 µg/mL and the Activity (4T1 [24]) was 29.6%. For the same compound, the Activity (4T1 [25]) was “Active”, the Activity [26] was “Toxic” and the Stability [27] was “Unstable”. The Activity [28] was “Toxic”, the Activity [29] was “Toxic” and the Activity (4T1 [30]) was “inactive”. For the same compound, the bioavailability [31] was 100%, the Activity (4T1 [32]) was “Active” and the Activity [33] was “Non-Toxic”. For the same compound, the Activity (4T1 [34]) was “inactive”, the inhibition (4T1 [35]) was “Dose-Dependent Effect” and the Activity (4T1 [36]) was “Active”. The Activity [37] was “Non-Toxic” and the Activity [38] was “Toxic”.
